Results reported in patent US20060276407A1, “Methods of treating hepatitis C virus” (Schering Corporation, priority 2005, published 2006).
Like-named read-outs stand apart in the source and are kept apart here.

What was measured:
HCV-RNA viral load = assay: Effect on HCV-RNA viral load, 14 days dosing of HCV positive genotype 1 interferon non responders (Example 3); format: in vivo
Method: Multiple escalating doses of compound of Formula Ia were administered for 14 days to HCV positive subjects who were genotype 1 Interferon-a (with or without ribavirin) non responders. In a randomized, placebo controlled, third party blind study, multiple doses of 100 mg BID, 200 mg BID, 400 mg BID, 400 mg TID, and 600 mg TID of compound of Formula Ia or placebo in a 3:1 ratio with or without food were evaluated. […]
Serial HCV-RNA data were evaluated for antiviral activity and for the change from baseline in the serum HCV RNA levels.

[1] = Multiple oral dosing for 14 days, pharmacokinetics in HCV infected subjects (Example 3); format: in vivo, human; conditions: for DN Cmax / DN-AUC(0-12 hr): dose-normalized (to 100 mg); for Cmin: at 0 hour (trough) predose; for Cmax / AUC(0-t) / Tmax / Vd/F / half-life: human, plasma, oral; for half-life: read-out: t½ (converted)
Method: Multiple escalating doses of compound of Formula Ia were administered for 14 days to HCV positive subjects who were genotype 1 Interferon-a (with or without ribavirin) non responders. In a randomized, placebo controlled, third party blind study, multiple doses of 100 mg BID, 200 mg BID, 400 mg BID, 400 mg TID, and 600 mg TID of compound of Formula Ia or placebo in a 3:1 ratio with or without food were evaluated.
Upon acceptance into the study, within each cohort, subjects were randomized in a 3:1 ratio (active to placebo) and received one of the following dosing groups: • Group 1: Compound of Formula Ia 100 mg (2×50 mg) BID or matching placebo×14 days without food. • Group 2: Compound of Formula Ia 200 mg (2×100 mg) BID or matching placebo×14 days without food. • Group 3: Compound of Formula Ia 400 mg (4×100 mg) BID or matching placebo×14 days without food. • Group4: Compound of Formula Ia 400 mg (4×100 mg) TID or matching placebo×14 days without food. • Group 5: Compound of Formula Ia 400 mg (4×100 mg) BID or matching placebo×14 days with food. • Group 6: Compound of Formula Ia 600 mg (6×100 mg) BID or matching placebo×14 days without food. • Group 7: Compound of Formula Ia 600 mg (6×100 mg) BID or matching placebo×14 days with food. • Group 8: compound of Formula Ia 600 mg (6×100 mg) TID or matching placebo×14 days without food. • Group 9: compound of Formula Ia intermediate dose or matching placebo×14 days with or without food.
Each subject was randomized to one treatment group. On Day 14, only the AM dose was administered.
For Cohorts Without Food: Treatments were administered on the morning (approximately 8 AM) of Days 1 and 14 following a 10 hour fast. Fasting continued until 4 hours postdose. Water was allowed during the fasting period. On the nonpharmacokinetic collection days (Days 2 through 13) breakfast and dinner were consumed either 90 minutes before or 90 minutes after each dose. All treatments were administered with approximately 240 mL of noncarbonated water. All doses on Days 1-14 were administered at approximately the same time each day, for cohorts with BID dosing study treatment were administered approximately 12 hours apart at 8 AM and 8 PM, and for cohorts with TID dosing study treatment were administered approximately 8 hours apart at 8 AM, 4 PM, and 12 Midnight.
For Cohorts With TID Dosing: All volunteers were dosed three times daily at approximately the same time each day; the doses were administered approximately 8 hours apart at 8 AM, 4 PM, and 12 Midnight.
For Cohorts With BID Dosing: All volunteers were dosed twice a day at approximately the same time each day. The doses were administered approximately 12 hours apart at 8 AM and 8 PM.
On Day 14, all subjects received only their assigned AM dose. During the dosing the capsule(s) were swallowed whole, not chewed or crushed. After dosing, the oral cavity was inspected to assure the volunteer had completely swallowed the capsule(s). […] Water was permitted throughout the fasting and nonfasting periods.
The plasma concentration data of compound of Formula Ia was used to estimate the following pharmacokinetic parameters: • Cmax—Maximum observed plasma concentration; • Tmax—Time of observed maximum plasma concentration; • AUC(0-t)—Area under the plasma concentration-time curve over the dosing interval • AUC (tf)—Area under the plasma concentration-time curve to the final quantifiable sample • CL/F—Apparent total body clearance. • t½—Terminal phase half life • Vd/F—Apparent volume of distribution • R—Accumulation ratio
All plasma samples were assayed for compound of Formula Ia using a validated liquid chromatographic tandem mass spectrometric (LC-MS/MS) method.

[2] = 100 mg, Day 14, 100 mg BID, mean
[3] = 200 mg, Day 14, 200 mg BID, mean
[4] = 400 mg, Day 14, 400 mg BID, mean
[5] = 400 mg, Day 14, 400 mg TID, mean

SMILES: CC(C)(C)NC(=O)N[C@H](C(=O)N1C[C@H]2[C@@H]([C@H]1C(=O)NC(CC1CCC1)C(=O)C(N)=O)C2(C)C)C(C)(C)C (mixture of isomers) [Formula Ia, (1 R, 5S)-N-[3-Amino-1-(Cyclobutylmethyl)-2,3-Dioxopropyl]-3-[2(S)-[[[(1,1-Dimethylethyl)Amino]Carbonyl]Amino]-3,3-Dimethyl-1-Oxobutyl]-6,6-Dimethyl-3-Azabicyclo[3.1.0]Hexan-2(S)-Carboxamide]
- Viral load (HCV-RNA) reduction from baseline, average minimum reduction (HCV-RNA viral load; 400 mg TID, 14 days): 2 logs
- HCV-RNA following discontinuation of the 14-day treatment (HCV-RNA viral load; all patients): returned to baseline levels
- mean accumulation ratio ([1]; BID dosing): 1
- DN Cmax ([1]; Day 1, 100 mg BID, mean): 131 ng/mL
- DN-AUC(0-12 hr) ([1]; Day 1, 100 mg BID, mean): 417 ng·h/mL
- DN Cmax ([1]; Day 1, 200 mg BID, mean): 162 ng/mL
- DN-AUC(0-12 hr) ([1]; Day 1, 200 mg BID, mean): 492 ng·h/mL
- DN Cmax ([1]; Day 1, 400 mg BID, mean): 116 ng/mL
- DN-AUC(0-12 hr) ([1]; Day 1, 400 mg BID, mean): 421 ng·h/mL
- Cmin ([1]; Day 14, 100 mg BID, mean): 12.7 ng/mL
- DN Cmax ([1]; Day 14, 100 mg BID, mean): 193 ng/mL
- DN-AUC(0-12 hr) ([1]; Day 14, 100 mg BID, mean): 700 ng·h/mL
- CL/F ([1]; Day 14, 100 mg BID, mean): 159 L/h
- R (accumulation ratio) ([1]; Day 14, 100 mg BID, mean): 2.40
- t½ ([1]; Day 14, 100 mg BID, mean): 8.58 h
- Cmin ([1]; Day 14, 200 mg BID, mean): 46.3 ng/mL
- DN Cmax ([1]; Day 14, 200 mg BID, mean): 212 ng/mL
- DN-AUC(0-12 hr) ([1]; Day 14, 200 mg BID, mean): 693 ng·h/mL
- CL/F ([1]; Day 14, 200 mg BID, mean): 155 L/h
- R (accumulation ratio) ([1]; Day 14, 200 mg BID, mean): 1.45
- Cmin ([1]; Day 14, 400 mg BID, mean): 48.8 ng/mL
- DN Cmax ([1]; Day 14, 400 mg BID, mean): 115 ng/mL
- DN-AUC(0-12 hr) ([1]; Day 14, 400 mg BID, mean): 411 ng·h/mL
- CL/F ([1]; Day 14, 400 mg BID, mean): 269 L/h
- R (accumulation ratio) ([1]; Day 14, 400 mg BID, mean): 1.00
- Cmin ([1]; Day 14, 400 mg TID, mean): 183 ng/mL
- DN Cmax ([1]; Day 14, 400 mg TID, mean): 138 ng/mL
- CL/F ([1]; Day 14, 400 mg TID, mean): 206 L/h
- R (accumulation ratio) ([1]; Day 14, 400 mg TID, mean): 1.26
- Cmax ([1]; 100 mg, Day 1, 100 mg BID, mean, n = 12): 131 ng/mL
- AUC(0-t) ([1]; 100 mg, Day 1, 100 mg BID, mean, read-out: AUC(0-12 hr)): 417 ng·h/mL
- Tmax ([1]; 100 mg, Day 1, 100 mg BID, median, read-out: Tmax): 1.5 h
- Cmax [1, 2]: 193 ng/mL
- Vd/F [1, 2]: 1860 L
- AUC(0-t) ([1]; 100 mg, Day 14, 100 mg BID, mean, read-out: AUC(0-12 hr)): 700 ng·h/mL
- half-life [1, 2]: 8.5 h
- Tmax ([1]; 100 mg, Day 14, 100 mg BID, median, read-out: Tmax): 1.25 h
- Cmax ([1]; 200 mg, Day 1, 200 mg BID, mean, n = 12): 324 ng/mL
- AUC(0-t) ([1]; 200 mg, Day 1, 200 mg BID, mean, read-out: AUC(0-12 hr)): 983 ng·h/mL
- Tmax ([1]; 200 mg, Day 1, 200 mg BID, median, read-out: Tmax): 1 h
- Cmax [1, 3]: 424 ng/mL
- Vd/F [1, 3]: 2910 L
- AUC(0-t) ([1]; 200 mg, Day 14, 200 mg BID, mean, read-out: AUC(0-12 hr)): 1390 ng·h/mL
- half-life [1, 3]: 13.4 h
- Tmax ([1]; 200 mg, Day 14, 200 mg BID, median, read-out: Tmax): 1.25 h
- Cmax ([1]; 400 mg, Day 1, 400 mg BID, mean, n = 11): 463 ng/mL
- AUC(0-t) ([1]; 400 mg, Day 1, 400 mg BID, mean, read-out: AUC(0-12 hr)): 1680 ng·h/mL
- Tmax ([1]; 400 mg, Day 1, 400 mg BID, median, read-out: Tmax): 1.5 h
- Cmax ([1]; 400 mg, Day 1, 400 mg TID, mean, n = 10): 504 ng/mL
- AUC(0-t) ([1]; 400 mg, Day 1, 400 mg TID, mean, read-out: AUC(0-8 hr)): 1650 ng·h/mL
- Tmax ([1]; 400 mg, Day 1, 400 mg TID, median, read-out: Tmax): 1.5 h
- Cmax [1, 4]: 459 ng/mL
- Vd/F [1, 4]: 5030 L
- AUC(0-t) ([1]; 400 mg, Day 14, 400 mg BID, mean, read-out: AUC(0-12 hr)): 1640 ng·h/mL
- half-life [1, 4]: 12.4 h
- Tmax ([1]; 400 mg, Day 14, 400 mg BID, median, read-out: Tmax): 1 h
- Cmax [1, 5]: ~550 ng/mL
- Vd/F [1, 5]: ~5000 L
- AUC(0-t) ([1]; 400 mg, Day 14, 400 mg TID, mean, read-out: AUC(0-8 hr)): 1990 ng·h/mL
- half-life [1, 5]: 15.9 h
- Tmax ([1]; 400 mg, Day 14, 400 mg TID, median, read-out: Tmax): 1.5 h
- Tmax ([1]; across dosages (100 mg BID to 400 mg TID), read-out: Mean Tmax): 1 to 1.5 h
- Time at which steady-state trough levels were reached ([1]; multiple dosing): ~11 days
